Data from publication PMC11184559, “Identification and Validation of Compounds Targeting Leishmania major Leucyl-Aminopeptidase M17” (ACS Infectious Diseases, 2024).
Where “and” joins values, the source holds several entries; their conditions need not be identical. Equal values may be shown once.

Columns and labels:
[1] = tested on: LmLAP-overexpressing L. major promastigotes; type: cell-based, Leishmania major; conditions: compound at EC50, 72 h, n = 70 cells per condition
Procedure: L. major promastigotes (WT and LmLAP OE) were grown in supplemented HOMEM media as described above, in T25 flasks. […] L. major WT cells were grown at control conditions. Briefly, cells were fixed directly in culture media with 3% (v/v) paraformaldehyde for 15 min at room temperature, washed three times with excess D-PBS, permeabilized with 0.2% Triton X-100 (v/v) in PBS for 5 min, and washed three times in excess PBS. Slides were mounted with mounting medium with DAPI (Vectashield Lab H-1000–10). Microscopy was carried out on a Zeiss microscope and images captured using software Zen Blue (Zeiss). Analysis of images and figure preparation were made in Omero.[71]

[2] = target: T1, rLmLAP (Leishmania major, UniProt Q7KF27); experiment: Mode of inhibition studies for rLmLAP (Leu-pNA, Lineweaver-Burk); type: biochemical; conditions: for Modality of rLmLAP inhibition: Lineweaver-Burk, 0, 15, 30, 60 μM inhibitor, L-Leu-pNA 0.59-300 μM
Procedure: The aminopeptidase enzymatic activity was determined by a continuous kinetic method.[26] The reaction was performed in 50 mM sodium phosphate, pH 7.0, in the presence of 13.9 nM rLmLAP (which is within the linear range of the v0 vs. enzyme concentration relationship) and 30 μM (1 appKM; 23) of the chromogenic substrate L-Leu-p-nitroanilide (Leu-pNA; 2 μL, in DMSO). The reaction was carried out at 25 °C in 96-well microplates (200 μL final volume), in a microplate spectrophotometer (FLUOstar OPTIMA, Germany). The increase of the absorbance at 405 nm (due to the release of the pNA chromogen) was recorded every 15 s for 5 min. Only the linear ranges of the typical curves, corresponding to substrate consumptions lower than 5% (v0 conditions) were used to measure the reaction velocity. Slopes with determination coefficients (R^2) < 0.98 were not considered for linear fits.
For the determination of the inhibition mode, inhibitors were used at 0, 15, 30, and 60 μM. For each inhibitor concentration, the substrate Leu-pNA was added at different concentrations (0.59–300 μM). Experimental data were transformed, and the Lineweaver–Burk double reciprocal plots were constructed. The following equation was used: [drawing 3] 3 where appvmax is the apparent maximal rate of the reaction, and [S]0 is the initial substrate concentration.[26] The inhibition type was determined graphically from the lines of the double reciprocal plots.[26]

[3] = target: T2, rHsLAP (Homo sapiens, UniProt P28838); experiment: RapidFire-MS selectivity study against human LAP; type: biochemical; conditions: for IC50: 150 nM rHsLAP, 600 μM LSTVIVR, 1 mM ZnCl2, 180 min
T2 construct: purchased Assay Genie, Ireland
Procedure: The reaction mixture included 600 μM (1× appKM) LSTVIVR substrate peptide, 1 mM ZnCl2, and the reaction time was 180 min. The inhibitors were tested at concentrations ranging from 0.78 to 100 μM to determine inhibitory activity.

[4] = target: T1, rLmLAP; experiment: RapidFire-MS aminopeptidase activity assay: inhibition of rLmLAP (LSTVIVR substrate); type: biochemical; conditions: for IC50: RapidFire-MS, 5 nM enzyme, 10 μM LSTVIVR, 20 min preincubation, 0.195-100 μM, mean ± standard error (n = 3)
Procedure: Assays were carried out as previously described,[24] with some differences indicated below. The reaction mix consisted of 0 nM (control) and 30 nM rLmLAP in 1× PBS, pH 7.0, 0.005% (v/v) NP-40, plus 7.5 μL of LSTVIVR substrate peptide in the same buffer. For product quantification, the peak areas of the LSTVIVR peptide were integrated with respect to the internal standard LSTVIVR* peptide. The C-terminal arginine was chosen because this amino acid is amenable to isotopic labeling.[45]
rLmLAP was assayed at 5 nM with 10 μM (1× appKM) of LSTVIVR substrate peptide. The enzyme was preincubated with bestatin or DMSO for 20 min. Bestatin was prepared at 10 concentrations in DMSO, covering the range from 0.39 to 100 μM. […] The remaining experimental conditions were maintained, as described above.
A high-throughput screen was conducted against rLmLAP using 3,383 compounds with known protease inhibitor motifs. The compounds were dispensed onto plates using an ECHO 550 acoustic dispenser (Labcyte, Sunnyvale, CA). The enzyme was assayed at 5 nM with 10 μM (1× appKM) LSTVIVR substrate for 60 min. Before adding the substrate, the enzyme was preincubated with 45 nL of the compounds or DMSO for 20 min. Compounds, dissolved in DMSO, were tested at 30 μM. […] No replicates were performed for each inhibitor in this experiment. The remaining experimental conditions were kept constant as described above. The ActivityBase program from IDBS provider (https://www.idbs.com) was used to process and analyze the data. Selection criteria for potential inhibitors in this screen required an inhibition percentage greater than the mean (calculated from the inhibition percentages of all the inhibitors) plus three standard deviations (SD). All compounds were purchased commercially and are >95% pure by HPLC.
To obtain IC50 data for screen-detected rLmLAP inhibitors at a single concentration, ten-point concentration–response curves were generated for selected inhibitors showing greater than mean ±3 SD inhibition. The curves were prepared in 384-well plates with a maximum concentration of 100 μM and 1:2 serial dilutions in DMSO (0.195–100 μM) using an ECHO 550 acoustic dispenser. All other experimental conditions were as described above for RapidFire-MS optimization. Three replicates of each concentration of inhibitor were evaluated. The IC50 value was calculated by nonlinear fitting of a four-parameter logistic function to the experimental data. Curve fitting and IC50 calculations were performed using IDBS ActivityBase XE version 9.2.0.106. Inhibitory activity was determined using the peak area ratio, calculated as the reaction product (STVIVR) divided by its internal standard (*LSTVIVR). The peak area ratio of the reaction without enzyme was defined as 100% inhibitory activity, and that of the complete reaction mixture was defined as 0% inhibitory activity. At least three replicates were generated for each hit compound.

T2 sequence (P28838 whole entry): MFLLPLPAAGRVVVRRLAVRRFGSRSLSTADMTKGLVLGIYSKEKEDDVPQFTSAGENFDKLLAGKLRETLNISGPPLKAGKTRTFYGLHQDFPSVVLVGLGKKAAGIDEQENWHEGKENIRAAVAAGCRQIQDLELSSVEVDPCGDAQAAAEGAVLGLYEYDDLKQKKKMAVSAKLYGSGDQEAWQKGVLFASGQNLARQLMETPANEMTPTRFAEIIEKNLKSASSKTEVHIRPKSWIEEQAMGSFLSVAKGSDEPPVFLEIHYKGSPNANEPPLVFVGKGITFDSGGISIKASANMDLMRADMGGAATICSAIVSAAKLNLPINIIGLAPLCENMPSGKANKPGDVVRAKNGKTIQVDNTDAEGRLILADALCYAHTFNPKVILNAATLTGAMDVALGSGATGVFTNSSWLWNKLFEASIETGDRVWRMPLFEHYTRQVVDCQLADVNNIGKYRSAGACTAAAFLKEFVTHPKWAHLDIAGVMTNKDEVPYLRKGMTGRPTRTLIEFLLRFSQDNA
T1 sequence (Q7KF27 entry or part of it): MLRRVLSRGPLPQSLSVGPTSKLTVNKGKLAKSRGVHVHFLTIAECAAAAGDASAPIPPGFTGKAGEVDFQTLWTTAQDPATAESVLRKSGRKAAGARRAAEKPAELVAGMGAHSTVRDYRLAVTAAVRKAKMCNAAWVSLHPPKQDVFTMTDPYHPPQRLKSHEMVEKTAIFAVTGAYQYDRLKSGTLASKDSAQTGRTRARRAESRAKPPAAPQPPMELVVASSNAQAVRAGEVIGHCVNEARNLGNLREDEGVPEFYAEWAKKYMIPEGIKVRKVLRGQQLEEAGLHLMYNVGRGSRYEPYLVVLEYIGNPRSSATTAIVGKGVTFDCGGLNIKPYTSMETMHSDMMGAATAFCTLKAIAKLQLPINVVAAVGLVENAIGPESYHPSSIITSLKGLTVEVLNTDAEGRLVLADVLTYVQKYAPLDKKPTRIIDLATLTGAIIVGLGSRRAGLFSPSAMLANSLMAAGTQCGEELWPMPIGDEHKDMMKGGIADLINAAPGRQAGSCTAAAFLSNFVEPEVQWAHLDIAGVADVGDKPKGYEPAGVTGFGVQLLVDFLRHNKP

Structure (SMILES)	Frequency of elongated 1K1N1F forms in LmLAP-overexpressing cells [1] [%]	Modality of rLmLAP inhibition [2]	α (noncompetitive inhibition mechanism) ([2]; α > 1: preferential binding to free enzyme)	inhibition at 100 µM [3] [%]	IC50 [3] [µM]	inhibition at 100 µM [4] [%]	IC50 [4]	Experimental ΔΔG ([4]; DDD00097924 relative to DDD00057570) [kcal/mol]
COc1ccc(Cc2c(N)nc(-c3ccccn3)nc2N)cc1 [DDD00057570]	~36	noncompetitive inhibitor	> 1	35	> 100	99	3.3 µM and 3 µM	–
O=C(c1cccs1)N(CCCn1ccnc1)c1nc2ccccc2s1 [DDD00097924]	~36	competitive mode inhibition	–	62	98	75	30.9 µM and 31 µM	1.3
